Assay results from ChEMBL document CHEMBL4376823, “The discovery of a potent and selective third-generation EGFR kinase inhibitor as a therapy for EGFR L858R/T790M double mutant non-small cell lung cancer” (Eur J Med Chem, 2019).
The source made the active and inactive calls.

Legend:
NCI-H1975 [1] = assay: Induction of apoptosis in human NCI-H1975 cells assessed as reduction in mitochondrial membrane potential at 5 to 50 nM incubated for 24 hrs by JC-1 staining based laser scanning confocal microscopy; format: functional, cell-based
[2] = biological target: T1, Epidermal growth factor receptor (Homo sapiens, UniProt P00533); assay: Inhibition of EGFR in human NCI-H292 cells assessed as reduction in AKT phosphorylation at 5 to 100 nM incubated for 4 hrs by Western blot analysis; format: cell-based
[3] = tested on: Epidermal growth factor receptor (Homo sapiens), P00533 [L858R]; assay: Inhibition of EGFR L858R mutant in human PC9 cells assessed as reduction in AKT phosphorylation incubated for 4 hrs by Western blot analysis; format: cell-based
[4] = tested on: Epidermal growth factor receptor (Homo sapiens), P00533 [L858R]; assay: Inhibition of EGFR L858R mutant in human PC9 cells assessed as reduction in AKT phosphorylation at 5 to 100 nM incubated for 4 hrs by Western blot analysis; format: cell-based
[5] = tested on: Epidermal growth factor receptor (Homo sapiens), P00533 [L858R,T790M]; assay: Inhibition of EGFR T790M/L858R mutant in human NCI-H1975 cells assessed as reduction in EGFR Y1068 phosphorylation at 5 to 100 nM incubated for 4 hrs by Western blot analysis; format: cell-based
[6] = tested on: Epidermal growth factor receptor (Homo sapiens), P00533 [L858R,T790M]; assay: Inhibition of EGFR T790M/L858R mutant in human NCI-H1975 cells assessed as reduction in AKT phosphorylation at 5 to 100 nM incubated for 4 hrs by Western blot analysis; format: cell-based
[7] = biological target: T1, Epidermal growth factor receptor; assay: Inhibition of EGFR in human NCI-H292 cells assessed as reduction in EGFR Y1068 phosphorylation at 5 to 100 nM incubated for 4 hrs by Western blot analysis; format: cell-based
[8] = biological target: T1, Epidermal growth factor receptor; assay: Inhibition of EGFR in human NCI-H292 cells assessed as reduction in AKT phosphorylation incubated for 4 hrs by Western blot analysis; format: cell-based
[9] = tested on: Epidermal growth factor receptor (Homo sapiens), P00533 [L858R,T790M]; assay: Inhibition of EGFR T790M/L858R mutant in human NCI-H1975 cells assessed as reduction in AKT phosphorylation incubated for 4 hrs by Western blot analysis; format: cell-based
NCI-H1975 [10] = assay: Induction of apoptosis in human NCI-H1975 cells assessed as upregulation of Bad at 10 to 50 nM incubated for 24 hrs by Western blot analysis; format: functional, cell-based
[11] = tested on: Epidermal growth factor receptor (Homo sapiens), P00533 [L858R,T790M]; assay: Inhibition of EGFR T790M/L858R mutant in human NCI-H1975 cells assessed as reduction in EGFR Y1068 phosphorylation incubated for 4 hrs by Western blot analysis; format: cell-based
NCI-H1975 [12] = assay: Antitumor activity against human NCI-H1975 cells xenografted in ig dosed BALB/c mouse assessed as tumor growth inhibition for one week; format: functional, organism-based
NCI-H1975 [13] = assay: Induction of apoptosis in human NCI-H1975 cells assessed as downregulation of Bcl-2 at 10 to 50 nM incubated for 24 hrs by Western blot analysis; format: functional, cell-based
[14] = tested on: Epidermal growth factor receptor (Homo sapiens), P00533 [L858R]; assay: Inhibition of EGFR L858R mutant in human PC9 cells assessed as reduction in EGFR Y1068 phosphorylation at 5 to 100 nM incubated for 4 hrs by Western blot analysis; format: cell-based
NCI-H1975 [15] = assay: Induction of apoptosis in human NCI-H1975 cells assessed as upregulation of Bax at 10 to 50 nM incubated for 24 hrs by Western blot analysis; format: functional, cell-based

T1 sequence (P00533 whole entry): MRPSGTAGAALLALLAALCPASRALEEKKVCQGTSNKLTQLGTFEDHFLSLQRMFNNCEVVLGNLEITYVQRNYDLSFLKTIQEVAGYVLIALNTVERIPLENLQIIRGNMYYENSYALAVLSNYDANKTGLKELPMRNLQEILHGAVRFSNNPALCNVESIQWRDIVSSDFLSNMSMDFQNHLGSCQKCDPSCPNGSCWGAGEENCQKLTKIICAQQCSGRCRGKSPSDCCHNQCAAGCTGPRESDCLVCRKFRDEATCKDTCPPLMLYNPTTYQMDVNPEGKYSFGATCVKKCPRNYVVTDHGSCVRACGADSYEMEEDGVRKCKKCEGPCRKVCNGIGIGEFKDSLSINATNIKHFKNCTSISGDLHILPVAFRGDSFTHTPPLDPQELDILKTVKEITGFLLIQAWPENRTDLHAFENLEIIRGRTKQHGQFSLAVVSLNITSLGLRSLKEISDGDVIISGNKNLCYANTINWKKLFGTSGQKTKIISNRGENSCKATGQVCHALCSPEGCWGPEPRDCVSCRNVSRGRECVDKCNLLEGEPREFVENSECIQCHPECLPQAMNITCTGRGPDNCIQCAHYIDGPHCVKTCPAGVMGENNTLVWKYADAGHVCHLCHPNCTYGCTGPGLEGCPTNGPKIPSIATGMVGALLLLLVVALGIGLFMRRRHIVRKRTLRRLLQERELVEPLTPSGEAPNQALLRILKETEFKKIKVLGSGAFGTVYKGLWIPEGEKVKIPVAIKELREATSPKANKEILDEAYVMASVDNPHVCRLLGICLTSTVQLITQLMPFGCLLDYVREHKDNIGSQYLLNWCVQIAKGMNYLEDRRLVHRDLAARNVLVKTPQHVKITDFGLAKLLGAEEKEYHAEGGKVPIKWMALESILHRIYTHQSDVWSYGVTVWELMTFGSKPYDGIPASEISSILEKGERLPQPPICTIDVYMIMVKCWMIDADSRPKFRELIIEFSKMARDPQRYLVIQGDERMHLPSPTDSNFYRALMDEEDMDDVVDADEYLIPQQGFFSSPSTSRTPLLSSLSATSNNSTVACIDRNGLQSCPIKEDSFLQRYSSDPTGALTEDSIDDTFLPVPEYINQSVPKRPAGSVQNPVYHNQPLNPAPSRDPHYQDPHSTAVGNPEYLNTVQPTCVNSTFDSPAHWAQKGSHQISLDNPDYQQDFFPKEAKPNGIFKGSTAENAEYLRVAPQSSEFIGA
Sequence of Epidermal growth factor receptor (Homo sapiens), P00533 [L858R] (P00533 whole entry L858R): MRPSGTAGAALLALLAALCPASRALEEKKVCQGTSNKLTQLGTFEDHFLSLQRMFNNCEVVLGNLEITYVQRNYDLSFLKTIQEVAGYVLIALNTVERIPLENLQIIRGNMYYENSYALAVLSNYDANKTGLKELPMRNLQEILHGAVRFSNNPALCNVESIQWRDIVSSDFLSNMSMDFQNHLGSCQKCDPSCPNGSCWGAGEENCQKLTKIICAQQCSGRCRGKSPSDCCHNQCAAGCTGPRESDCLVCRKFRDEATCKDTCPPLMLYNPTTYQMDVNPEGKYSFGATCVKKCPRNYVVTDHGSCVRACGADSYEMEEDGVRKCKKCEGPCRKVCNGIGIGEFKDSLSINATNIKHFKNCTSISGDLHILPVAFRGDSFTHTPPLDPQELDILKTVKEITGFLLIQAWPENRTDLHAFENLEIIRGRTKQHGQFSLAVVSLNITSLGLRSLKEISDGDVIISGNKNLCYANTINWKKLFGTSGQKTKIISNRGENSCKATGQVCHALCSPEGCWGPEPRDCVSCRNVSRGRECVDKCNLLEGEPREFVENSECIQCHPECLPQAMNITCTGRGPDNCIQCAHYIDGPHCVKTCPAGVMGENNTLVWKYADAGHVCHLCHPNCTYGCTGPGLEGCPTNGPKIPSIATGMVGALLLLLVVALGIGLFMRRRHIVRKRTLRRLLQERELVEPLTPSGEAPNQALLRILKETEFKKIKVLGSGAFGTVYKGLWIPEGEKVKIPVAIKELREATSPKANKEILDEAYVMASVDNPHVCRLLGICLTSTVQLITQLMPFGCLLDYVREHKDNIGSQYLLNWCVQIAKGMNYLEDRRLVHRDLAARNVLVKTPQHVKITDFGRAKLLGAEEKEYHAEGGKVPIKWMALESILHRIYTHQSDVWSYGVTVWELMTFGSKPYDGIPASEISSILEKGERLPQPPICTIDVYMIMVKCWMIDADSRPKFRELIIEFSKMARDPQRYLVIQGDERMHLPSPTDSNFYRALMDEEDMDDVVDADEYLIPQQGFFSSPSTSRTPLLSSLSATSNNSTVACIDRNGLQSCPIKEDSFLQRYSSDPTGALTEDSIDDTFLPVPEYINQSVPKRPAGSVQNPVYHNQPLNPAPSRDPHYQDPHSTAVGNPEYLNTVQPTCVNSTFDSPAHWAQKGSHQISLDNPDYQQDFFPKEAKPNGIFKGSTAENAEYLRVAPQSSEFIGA
Sequence of Epidermal growth factor receptor (Homo sapiens), P00533 [L858R,T790M] (P00533 whole entry T790M/L858R, looked up): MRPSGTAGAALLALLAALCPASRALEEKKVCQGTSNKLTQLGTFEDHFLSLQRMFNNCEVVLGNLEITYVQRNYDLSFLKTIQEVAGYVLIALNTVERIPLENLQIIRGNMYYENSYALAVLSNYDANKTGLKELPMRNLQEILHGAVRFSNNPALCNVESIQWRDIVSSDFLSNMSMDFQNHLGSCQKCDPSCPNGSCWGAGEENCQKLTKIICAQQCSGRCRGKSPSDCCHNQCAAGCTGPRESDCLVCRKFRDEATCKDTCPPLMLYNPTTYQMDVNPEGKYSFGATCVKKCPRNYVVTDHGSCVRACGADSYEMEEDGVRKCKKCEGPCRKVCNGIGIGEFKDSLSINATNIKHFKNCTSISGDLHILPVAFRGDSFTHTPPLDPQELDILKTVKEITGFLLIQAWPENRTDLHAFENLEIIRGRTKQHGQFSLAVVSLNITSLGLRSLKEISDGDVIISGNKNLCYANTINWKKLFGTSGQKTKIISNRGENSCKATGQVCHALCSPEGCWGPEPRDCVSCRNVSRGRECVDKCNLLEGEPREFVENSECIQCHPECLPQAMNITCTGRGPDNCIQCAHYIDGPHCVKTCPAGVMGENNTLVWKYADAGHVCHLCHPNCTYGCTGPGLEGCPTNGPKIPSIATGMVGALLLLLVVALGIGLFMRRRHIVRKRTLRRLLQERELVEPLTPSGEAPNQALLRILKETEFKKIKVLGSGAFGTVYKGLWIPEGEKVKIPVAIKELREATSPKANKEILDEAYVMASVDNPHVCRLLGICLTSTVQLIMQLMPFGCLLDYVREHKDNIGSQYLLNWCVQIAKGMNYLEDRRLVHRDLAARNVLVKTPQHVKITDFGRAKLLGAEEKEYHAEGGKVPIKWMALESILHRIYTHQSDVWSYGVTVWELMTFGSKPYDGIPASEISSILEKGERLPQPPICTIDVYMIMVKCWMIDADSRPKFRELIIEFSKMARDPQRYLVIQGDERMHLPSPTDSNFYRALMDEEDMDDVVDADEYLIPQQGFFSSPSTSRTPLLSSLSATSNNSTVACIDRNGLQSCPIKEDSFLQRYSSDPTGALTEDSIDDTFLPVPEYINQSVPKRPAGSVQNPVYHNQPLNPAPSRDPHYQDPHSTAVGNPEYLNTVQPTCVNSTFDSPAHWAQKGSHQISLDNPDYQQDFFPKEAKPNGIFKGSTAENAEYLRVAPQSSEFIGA

C=CC(=O)Nc1cc(Nc2nccc(-c3cn(C)c4ccccc34)n2)c(OC)cc1[S+]([O-])CCN(C)C (single isomer, unassigned; (-))
active: Activity (NCI-H1975 [1]) Dose-dependent effect | inhibition [2] | inhibition [3] Dose-dependent effect | inhibition [4] | inhibition [5] | inhibition [6] | inhibition [7] | inhibition [8] Dose-dependent effect | inhibition [9] Dose-dependent effect | Activity (NCI-H1975 [10]) | inhibition [11] Dose-dependent effect | TGI (NCI-H1975 [12]) Dose-dependent effect | Activity (NCI-H1975 [13]) | inhibition [14] | Activity (NCI-H1975 [15])
